Results from patent US20110230419A1, “IAP BINDING COMPOUNDS” (Nuevolution A/S, priority 2008, published 2011).
Where a SMILES comes first, the peptide text is derived from it. [ ]: non-standard residue; d: D form. Pro(cis-4-Ph) = O=C(O)[C@@H]1C[C@H](c2ccccc2)CN1; Phe(3-CN) = N#Cc1cccc(C[C@H](N)C(=O)O)c1; Ala(2-furyl) = N[C@@H](Cc1ccco1)C(=O)O; Abu = CC[C@H](N)C(=O)O

target: T1, XIAP BIR3 (Homo sapiens, UniProt P98170); assay: Biotinylated BIR3 XIAP domain Alphascreen assay; design: biotinylated XIAP BIR3; biotin (biotinylated); details: biotinylated XIAP BIR3, FITC-labeled IAP-binding molecule, Streptavidin Donor / Anti-FITC Acceptor Beads, incubation 2 hours; concentration reducing alphascreen signal to half of maximum
Description: Biotinylated BIR3 XIAP Domain Alphascreen Assay Compounds were incubated with Streptavidin Donor Beads, Anti-FITC Acceptor Beads, biotinylated XIAP BIR3 and a FITC-labeled IAP-binding molecule. Following incubation for 2 hours the wells were read in an Envision reader. IC50s correspond to the concentration of compound which reduces the alphascreen signal to half of the maximum.
Target sequence in this assay (P98170 241-356 limits assumed): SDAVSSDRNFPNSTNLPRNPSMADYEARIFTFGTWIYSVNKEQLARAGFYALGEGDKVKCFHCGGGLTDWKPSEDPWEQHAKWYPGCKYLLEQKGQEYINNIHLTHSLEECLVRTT

| SMILES | IC50 |
| --- | --- |
| CC[C@H](NC(=O)[C@H](C)N)C(=O)N1C[C@@H](c2ccccc2)C[C@H]1C(=O)N1C[C@@H](c2ccccc2)C[C@H]1C(=O)NC [Example 16, (2S,4R)-1-((3R,5S)-1-((S)-2-((S)-2-aminopropanamido)butanoyl)-3-phenylpyrrolidine-5-carbonyl)-N-methyl-4-phenylpyrrolidine-2-carboxamide] (H-A[Abu][Pro(cis-4-Ph)][Pro(cis-4-Ph)]-NHMe) | 0.1 to 100 nM |
| C[C@H](N)C(=O)N[C@@H](Cc1cccc(C(N)=O)c1)C(=O)N1CC(c2ccccc2)C1C(=O)N[C@@H]1CCc2ccccc21 (stereo partly drawn) [Example 18, 1-((S)-2-((S)-2-aminopropanamido)-3-(3-carbamoylphenyl)propanoyl)-N—((R)-2,3-dihydro-1H-inden-1-yl)-3-phenylazetidine-2-carboxamide] | 0.1 to 100 nM |
| C[C@H](N)C(=O)N[C@@H](Cc1cccc(C(N)=O)c1)C(=O)N1CC(C(=O)NC2CCc3ccccc32)C1c1ccccc1 (stereo in doubt) [Example 24, 1-((S)-2-((S)-2-aminopropanamido)-3-(3-carbamoylphenyl)propanoyl)-N—((R)-2,3-dihydro-1H-inden-1-yl)-2-phenylazetidine-3-carboxamide] | 0.1 to 100 nM |
| CC[C@H](NC)C(=O)N[C@@H](Cc1cccc(C#N)c1)C(=O)N1C[C@@H](c2ccccc2)C[C@H]1CN1CC[C@H](c2ccccc2)C1 [Example 22, (S)—N—((S)-3-(3-cyanophenyl)-1-oxo-1-((2S,4R)-4-phenyl-2-(((R)-3-phenylpyrrolidin-1-yl)methyl)pyrrolidin-1-yl)propan-2-yl)-2-(methylamino)butanamide] | 0.1 to 100 nM |
| CNC(=O)[C@@H]1C[C@H](c2ccccc2)CN1C(=O)[C@@H]1C[C@H](c2ccccc2)CN1C(=O)[C@H](Cc1cccc(C#N)c1)NC(=O)[C@H](C)N [Example 20, (2S,4R)-1-((3R,5S)-1-((S)-2-((S)-2-aminopropanamido)-3-(3-cyanophenyl)propanoyl)-3-phenylpyrrolidine-5-carbonyl)-N-methyl-4-phenylpyrrolidine-2-carboxamide] (H-A[Phe(3-CN)][Pro(cis-4-Ph)][Pro(cis-4-Ph)]-NHMe) | 0.1 to 100 nM |
| CNC(=O)[C@@H]1C[C@H](c2ccccc2)CN1C(=O)[C@@H]1C[C@H](c2ccccc2)CN1C(=O)[C@H](Cc1ccco1)NC(=O)[C@H](C)N [Example 15] (H-A[Ala(2-furyl)][Pro(cis-4-Ph)][Pro(cis-4-Ph)]-NHMe) | 0.1 to 100 nM |
| C[C@@H](N)C1CCCC(C(=O)N2C[C@@H](c3ccccc3)C[C@H]2C(=O)N2CC[C@H](c3ccccc3)C2)N1 (stereo partly drawn) [Example 7, [6-((R)-1-Amino-ethyl)-piperidin-2-yl]-[(2S,4R)-4-phenyl-2-((R)-3-phenyl-pyrrolidine-1-carbonyl)-pyrrolidin-1-yl]-methanone] | > 1000 nM |
| CC(N)c1cccc(C(=O)N2C[C@@H](c3ccccc3)C[C@H]2C(=O)N2CC[C@H](c3ccccc3)C2)c1 (stereo partly drawn) [Example 6, [3-(1-Amino-ethyl)-phenyl]-[(2S,4R)-4-phenyl-2-((R)-3-phenyl-pyrrolidine-1-carbonyl)-pyrrolidin-1-yl]-methanone] | 100 to 1000 nM |
| CC(N)c1ccc(C(=O)N2C[C@@H](c3ccccc3)C[C@H]2C(=O)N2CC[C@H](c3ccccc3)C2)o1 (stereo partly drawn) [Example 5, [5-(1-Amino-ethyl)-furan-2-yl]-[(2S,4R)-4-phenyl-2-((R)-3-phenyl-pyrrolidine-1-carbonyl)-pyrrolidin-1-yl]-methanone] | 0.1 to 100 nM |
| C[C@@H](N)C(=O)N[C@@H](Cc1ccc(C(N)=O)cc1)C(=O)N1C[C@@H](c2ccccc2)C[C@H]1C(=O)N[C@@H]1CCc2ccccc21 [Example 17, (2S,4R)-1-((S)-2-((R)-2-aminopropanamido)-3-(4-carbamoylphenyl)propanoyl)-N—((R)-2,3-dihydro-1H-inden-1-yl)-4-phenylpyrrolidine-2-carboxamide] | 0.1 to 100 nM |
| CC(N)c1ccc(C(=O)N2C[C@@H](c3ccccc3)C[C@H]2CN2CC[C@H](c3ccccc3)C2)o1 (stereo partly drawn) [Example 2, (5-(1-Aminoethyl)furan-2-yl)((2S,4R)-4-phenyl-2-(((R)-3-phenylpyrrolidin-1-yl)methyl)pyrrolidin-1-yl)methanone] | 100 to 1000 nM |
| C[C@H](N)C(=O)N[C@@H](Cc1cccc(C#N)c1)C(=O)N1C[C@@H](c2ccccc2)C[C@H]1C(=O)N[C@@H]1CCc2ccccc21 [Example 19, (2S,4R)-1-((S)-2-((S)-2-aminopropanamido)-3-(3-cyanophenyl)propanoyl)-N—((R)-2,3-dihydro-1H-inden-1-yl)-4-phenylpyrrolidine-2-carboxamide] | 0.1 to 100 nM |
| C[C@@H](N)C(=O)N[C@@H](Cc1cccc(C(N)=O)c1)C(=O)N1C[C@@H](c2ccccc2)C[C@H]1C(=O)N[C@@H]1CCc2ccccc21 [Example 23, (2S,4R)-1-((S)-2-((R)-2-aminopropanamido)-3-(3-carbamoylphenyl)propanoyl)-N—((R)-2,3-dihydro-1H-inden-1-yl)-4-phenylpyrrolidine-2-carboxamide] | 0.1 to 100 nM |
| C[C@H](N)C1CCCC(C(=O)N2C[C@@H](c3ccccc3)C[C@H]2C(=O)N2CC[C@H](c3ccccc3)C2)N1 (stereo partly drawn) [Example 8, [6-((S)-1-Amino-ethyl)-piperidin-2-yl]-[(2S,4R)-4-phenyl-2-((R)-3-phenyl-pyrrolidine-1-carbonyl)-pyrrolidin-1-yl]-methanone] | 100 to 1000 nM |
| CNC(=O)[C@@H]1C[C@H](c2ccccc2)CN1C(=O)[C@@H]1C[C@H](c2ccccc2)CN1C(=O)C(Cn1cncn1)NC(=O)[C@H](C)N (stereo partly drawn) [Example 21, (2S,4R)-1-((3R,5S)-1-(2-((S)-2-aminopropanamido)-3-(1H-1,2,4-triazol-1-yl)propanoyl)-3-phenylpyrrolidine-5-carbonyl)-N-methyl-4-phenylpyrrolidine-2-carboxamide] | 0.1 to 100 nM |

target: T1, XIAP BIR3; assay: HIS-tagged BIR3 XIAP domain Alphascreen assay; design: HIS-tagged XIAP BIR3 (RnD systems); purchased RnD systems; details: HIS-tagged XIAP BIR3 (RnD systems), biotin-labeled IAP-binding molecule, Streptavidin Donor / Ni-NTA Acceptor Beads, incubation 2 hours; concentration reducing alphascreen signal to half of maximum
Description: HIS-Tagged BIR3 XIAP Domain Alphascreen Assay
Compounds were incubated with Streptavidin Donor Beads, Ni-NTA Acceptor Beads, HIS-tagged XIAP BIR3 (RnD systems) and a biotin-labeled IAP-binding molecule. Following incubation for 2 hours the wells were read in an Envision reader. IC50s correspond to the concentration of compound which reduces the alphascreen signal to half of the maximum.
Target sequence in this assay (P98170 252-356 limits assumed): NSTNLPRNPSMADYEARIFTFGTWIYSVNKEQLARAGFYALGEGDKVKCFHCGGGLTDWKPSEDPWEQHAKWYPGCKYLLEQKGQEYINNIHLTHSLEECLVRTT

| SMILES | IC50 |
| --- | --- |
| O=C(N[C@@H]1CCc2ccccc21)[C@@H]1C[C@@H](C2CCCCC2)CN1C(=O)C1CC2(CCNCC2)CN1 (stereo partly drawn) [Example 13, (2S,4S)-4-Cyclohexyl-1-(2,8-diaza-spiro[4.5]decane-3-carbonyl)-pyrrolidine-2-carboxylic acid (R)-indan-1-ylamide] | 100 to 1000 nM |
| CNC(C)c1ccc(C(=O)N2C[C@@H](c3ccccc3)C[C@H]2C(=O)N2CC[C@H](c3ccccc3)C2)o1 (stereo partly drawn) [Example 1, [5-(1-Methylamino-ethyl)-furan-2-yl]-[(2S,4R)-4-phenyl-2-((R)-3-phenyl-pyrrolidine-1-carbonyl)-pyrrolidin-1-yl]-methanone] | 0.1 to 100 nM |
| CNC(C)c1ccc(C(=O)N2C[C@@H](c3ccc(F)cc3)C[C@H]2C(=O)N2CCC(c3ccc(F)cc3)C2)o1 (stereo partly drawn) [Example 9, {(2S,4R)-4-(4-Fluoro-phenyl)-2-[3-(4-fluoro-phenyl)-pyrrolidine-1-carbonyl]-pyrrolidin-1-yl}-[5-(1-methylamino-ethyl)-furan-2-yl]-methanone] | 0.1 to 100 nM |
| CNC(C)c1cccc(C(=O)N2C[C@@H](c3ccccc3)C[C@H]2CN2CC[C@H](c3ccccc3)C2)c1 (stereo partly drawn) [Example 11, (3-(1-(methylamino)ethyl)phenyl)((2S,4R)-4-phenyl-2-(((R)-3-phenylpyrrolidin-1-yl)methyl)pyrrolidin-1-yl)methanone] | 100 to 1000 nM |
| O=C(N[C@H](C(=O)N[C@@H]1CCc2ccccc21)C1CCCCC1)C1CC2(CCNCC2)CN1 (stereo partly drawn) [Example 14, 2,8-Diaza-spiro[4.5]decane-3-carboxylic acid [(S)-cyclohexyl-((R)-indan-1-ylcarbamoyl)-methyl]-amide] | 100 to 1000 nM |
| CNC(C)c1cccc(C(=O)N2C[C@@H](c3ccccc3)C[C@H]2C(=O)N2CC[C@H](c3ccccc3)C2)c1 (stereo partly drawn) [Example 3, [3-(1-Methylamino-ethyl)-phenyl]-[(2S,4R)-4-phenyl-2-((R)-3-phenyl-pyrrolidine-1-carbonyl)-pyrrolidin-1-yl]-methanone] | 100 to 1000 nM |
| CNC(C)c1ccc(C(=O)N2C[C@@H](c3ccccc3)C[C@H]2CN2CC[C@H](c3ccccc3)C2)o1 (stereo partly drawn) [Example 10, (5-(1-(methylamino)ethyl)furan-2-yl)((2S,4R)-4-phenyl-2-(((R)-3-phenylpyrrolidin-1-yl)methyl)pyrrolidin-1-yl)methanone] | 100 to 1000 nM |
